Measured values as given in US20240390350A1, “PHENYL CORE COMPOUNDS AS MGLU5 NEGATIVE ALLOSTERIC MODULATORS AND METHODS OF MAKING AND USING THE SAME” (Vanderbilt University, priority 2021, published 2024).

The compounds below were run against T1, human mGlu5 (Homo sapiens, UniProt P41594) (assay: mGlu5 negative allosteric modulator Ca2+ flux assay in HEK 293A cells (Table 1)). Conditions: HEK 293A cells stably expressing mGlu5; Ca2+ flux (Fluo-4); decrease of glutamate EC80 response; read-out: hmGlu5 NAM IC50.
T1 construct: expressed in transfected cells; host or cells: HEK 293A
T1 sequence (P41594 21-1212): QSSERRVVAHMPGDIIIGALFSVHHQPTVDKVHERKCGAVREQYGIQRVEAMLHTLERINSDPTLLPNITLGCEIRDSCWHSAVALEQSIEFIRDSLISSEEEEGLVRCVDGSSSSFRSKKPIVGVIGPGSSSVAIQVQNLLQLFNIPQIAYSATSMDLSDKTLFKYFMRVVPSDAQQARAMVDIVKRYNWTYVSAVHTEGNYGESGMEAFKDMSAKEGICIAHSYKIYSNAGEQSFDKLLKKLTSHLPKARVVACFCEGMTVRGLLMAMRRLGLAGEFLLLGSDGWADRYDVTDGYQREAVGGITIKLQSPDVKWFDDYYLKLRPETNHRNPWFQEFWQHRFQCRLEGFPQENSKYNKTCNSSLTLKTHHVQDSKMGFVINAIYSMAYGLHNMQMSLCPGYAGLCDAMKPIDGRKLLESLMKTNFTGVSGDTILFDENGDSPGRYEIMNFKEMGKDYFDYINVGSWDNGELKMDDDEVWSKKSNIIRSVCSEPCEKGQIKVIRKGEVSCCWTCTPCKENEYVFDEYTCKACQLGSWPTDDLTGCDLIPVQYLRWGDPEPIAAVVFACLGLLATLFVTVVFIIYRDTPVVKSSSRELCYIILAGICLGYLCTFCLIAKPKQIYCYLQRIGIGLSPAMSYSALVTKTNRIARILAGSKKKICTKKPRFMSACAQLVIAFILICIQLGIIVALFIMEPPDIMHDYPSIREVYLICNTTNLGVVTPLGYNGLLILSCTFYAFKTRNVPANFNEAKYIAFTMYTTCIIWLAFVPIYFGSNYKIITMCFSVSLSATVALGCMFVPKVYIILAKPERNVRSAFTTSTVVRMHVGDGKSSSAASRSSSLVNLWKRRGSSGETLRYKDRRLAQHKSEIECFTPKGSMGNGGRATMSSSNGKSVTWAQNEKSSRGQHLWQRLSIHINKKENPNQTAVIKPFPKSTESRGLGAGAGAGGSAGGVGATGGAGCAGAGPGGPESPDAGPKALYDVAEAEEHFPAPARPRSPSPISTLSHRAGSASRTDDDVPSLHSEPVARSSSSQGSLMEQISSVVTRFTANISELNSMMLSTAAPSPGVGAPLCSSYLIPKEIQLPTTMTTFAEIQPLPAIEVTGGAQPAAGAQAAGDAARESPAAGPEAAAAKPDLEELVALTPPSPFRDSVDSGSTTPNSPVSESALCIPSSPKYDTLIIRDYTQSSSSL
Type: cell-based

Question: For `Cc1ccncc1-c1cc(C(=O)Nc2cccc(Cl)n2)c(F)cc1F` [Compound 48, N-(6-chloropyridin-2-yl)-2,4-difluoro-5-(4-methylpyridin-3-yl)benzamide], which IC50 is on record?
Answer: 192 nM

Question: For `Cc1ccncc1-c1cc(C(=O)Nc2ccccn2)cc(F)c1F` [Compound 49, 3,4-difluoro-5-(4-methylpyridin-3-yl)-N-(pyridin-2-yl)benzamide], which IC50 is on record?
Answer: 412 nM

Question: For `Cc1ccncc1-c1cc(C(=O)Nc2cccc(Cl)n2)cc(F)c1F` [Compound 50, N-(6-chloropyridin-2-yl)-3,4-difluoro-5-(4-methylpyridin-3-yl)benzamide], which IC50 is on record?
Answer: 79 nM

Question: For `Cc1csc(NC(=O)c2cc(F)c(F)c(-c3cnccc3C)c2)n1` [Compound 51, 3,4-difluoro-5-(4-methylpyridin-3-yl)-N-(4-methylthiazol-2-yl)benzamide], which IC50 is on record?
Answer: 437 nM
